# In patent publication US20250000874A1, “BACTERIAL METABOLITES AND THEIR USE IN REDUCING INFLAMMATION” (LOYOLA UNIVERSITY OF CHICAGO, priority 2023, published 2025):
# How the values were obtained:
# [1] = In vivo toxicity of JE given I.P.: serum ALT and organ histology; details: JE 50 μM twice daily I.P. for 3 or 5 days
# Procedure: To test if JE has any toxicity, we first incubated murine macrophages with JE at different concentrations at 37° C. for two days, and determined viability of the cells. […] Further we injected the JE at 50 μM twice daily via I.P. for 3 or 5 days and then determined ALT levels in sera and examined the morphology in key organs, liver, kidney, spleen, intestines etc.
# BMDMs = test: JE on TNF-α and IL-6 secretion by BMDMs upon LPS and TLR agonists; format: cell-based, mouse
# Procedure: (§1) FIG. 16. The Effect of JE on TNF-α Secretion by BMDMs in Response to Stimulation by Different Concentrations of LPS. BMDMs were isolated and cultured, as mentioned before. Macrophages were incubated overnight with JE at a concentration of 50 μM at 37° C., 5% CO2. The next day, they were stimulated with two-fold dilutions of LPS at a starting concentration of 5 ng/ml for 3 hours. Supernatants were collected, and TNF-α was measured using ELISA. Data are presented as mean±SEM (n=6). *p<0.05; **p<0.01; ***p<0.001. One of two experiments is shown.
# as §1, with “17.” for “16.”, “IL-6” for “TNF-α”, “cultured” for “cultured,”, “described above.” for “mentioned before.”
# FIG. 18. The Effect of JE on TNF-α Secretion by BMDMs in Response to Stimulation by TLR Agonists. BMDMs were isolated and cultured as described above. Macrophages were incubated overnight with JE at a concentration of 50 μM at 37° C., 5% CO2. The following day, they were stimulated with 1 μg/ml of FLG-ST, […] of ODN, 50 μg/ml of Poly: IC, 3 μg/ml of Imiquimod, 3 μg/ml and 1.5 μg/ml of PAM-3SCk, 1 μg/ml of FSL-1 for 3 hours. Supernatants were collected, and TNF-α was measured using ELISA. Data are presented as mean±SEM (n=6). *p<0.05; **p<0.01; ***p<0.001. One of three experiments is shown.
# Murine macrophages, both RAW 264.7 macrophages and bone marrow-derived macrophages (BMDMs), were seeded and then pretreated overnight with the metabolite JE. The following day, the macrophages were stimulated with one of TLR agonists, including LPS, FLA-ST, ODN, Pam3SCK4, Poly: IC LMW, FSL, and Imiquimod for 3 hours, then the production of TNF-α, and IL-6 in the culture supernatants was measured by ELISA.
# Therefore, I stimulated them with two-fold dilution of the concentration I used to stimulate RAW 264.7. […] On the other hand, JE could reduce IL-6 secretion by BMDMs at 5 ng/ml of LPS as depicted in FIG. 17.
# Similar to treatment of RAW 264.7 macrophages with TLR agonists, I pretreated BMDMs with JE then stimulated them with FLG, ODN, PIC, Imiquimod, PAM-3SCK, and FSL-1. […] After 3 hours, Supernatants were collected, TNF-α and IL-6 were quantified by ELISA.
smiles,measurement,setting,value
"CC(=O)O[C@@H]1CC[C@H]2[C@H]3CC[C@H]4CC(F)(F)CC[C@]4(C)[C@H]3CC[C@]12C [JE, 3,3-Difluoro-5-alpha-androstan-17-beta-yl acetate]","tissue damage in organs by histology (liver, kidney, spleen, intestines)",[1],did not see any tissue damage
same,ALT levels in sera,[1]; vs control group,no significant higher levels
same,TNF-α secretion,"BMDMs; JE 50 μM overnight, LPS 0.6 ng/ml 3 hours",Significant inhibition
same,TNF-α secretion,"BMDMs; JE 50 μM overnight, LPS 1.25 ng/ml 3 hours",Significant inhibition
same,IL-6 secretion,"BMDMs; JE 50 μM overnight, LPS 5 ng/ml 3 hours",could reduce
same,TNF-α secretion upon stimulation with TLR agonists,"BMDMs; JE 50 μM overnight, FLG, ODN, PIC, Imiquimod, PAM-3SCK, FSL-1, 3 hours",decreased
same,IL-6 secretion upon stimulation with TLR agonists,"BMDMs; JE 50 μM overnight, TLR agonists 3 hours",decreased
same,IL-6 production,"BMDMs; JE, LPS 10 ng/ml",failed to decrease
same,TNF-α production,"BMDMs; JE, LPS 10 ng/ml",failed to decrease
same,TNF-α production,"BMDMs; ODN and PAM-3SCK, previous experiment before two-fold dilutions",did not significantly reduce
